Among the data in US9284284B2, “Oxazine derivatives and their use in the treatment of disease” (NOVARTIS AG, priority 2011, dated 2016) are IC50 values, retold here.

What is called pIC50 is the negative decadic logarithm of the IC50, by convention in mol/L.

pIC50: −log10 of the molar value. Structures can show the parent of a compound that is named as a salt. Where two headings read alike, the source gives them in different places.

The target of one test is human BACE-1 (Homo sapiens (Human), UniProt P56817). Briefly: Test 1: Inhibition of Human BACE-1. Particulars: recombinant BACE-1, pH 4.5, fluorescence-quenched substrate. It counts as biochemical. The method, then: Test 1: Inhibition of Human BACE-1
(§1) Recombinant BACE-1 (extracellular domain, expressed in baculovirus and purified using standard methods) at 0.1 to 1 nM concentrations is incubated with the test compound at various concentrations for 1 hour at room temperature in 100 mM acetate buffer, pH 4.5, containing 0.1% CHAPS. Activity was measured using a final concentration of 3 μM of the fluorescence-quenched substrate Q-C(HSO3)-Ile-Asp-Leu-Ala-Val-Leu-Asp-HN—CH2—CH2-Mca, where Q=2-nitro-5-amino benzoic acid and Mca=7-methoxy-4-coumarinyl acetic acid. […] Fluorescence increase was followed for 15 min, in 1 minute's intervals. The fluorescence/time slopes were calculated from duplicate wells and from wells without inhibitor and the IC50 values were calculated using a logistic 4-parameter model.

In test [1] the test system is amyloid peptide 1-40 release. Briefly: Test 4: Inhibition of Cellular Release of Amyloid Peptide 1-40. It counts as cell-based. The settings on record: Chinese hamster ovary cells transfected with the human gene for amyloid precursor protein, 24 hours, read-out: Amyloid-β1-40 release IC50. The method, then: Chinese hamster ovary cells are transfected with the human gene for amyloid precursor protein. The cells are plated at a density of 8000 cells/well into 96-well microtiter plates and cultivated for 24 hours in DMEM cell culture medium containing 10% FCS. The test compound is added to the cells at various concentrations, and the cells are cultivated for 24 hours in the presence of the test compound. […] The potency of the compound is calculated from the percentage of inhibition of amyloid peptide release as a function of the test compound concentration.

The target in a further test is human BACE-2 (Homo sapiens (Human), UniProt Q9Y5Z0). Put plainly: Test 2: Inhibition of Human BACE-2. It counts as biochemical. The settings on record: recombinant BACE-2, pH 4.5, fluorescence-quenched substrate. As to the method: Test 2: Inhibition of Human BACE-2
as §1, with “BACE-2” for “BACE-1”

human BACE-2, sequence (Q9Y5Z0 63-473): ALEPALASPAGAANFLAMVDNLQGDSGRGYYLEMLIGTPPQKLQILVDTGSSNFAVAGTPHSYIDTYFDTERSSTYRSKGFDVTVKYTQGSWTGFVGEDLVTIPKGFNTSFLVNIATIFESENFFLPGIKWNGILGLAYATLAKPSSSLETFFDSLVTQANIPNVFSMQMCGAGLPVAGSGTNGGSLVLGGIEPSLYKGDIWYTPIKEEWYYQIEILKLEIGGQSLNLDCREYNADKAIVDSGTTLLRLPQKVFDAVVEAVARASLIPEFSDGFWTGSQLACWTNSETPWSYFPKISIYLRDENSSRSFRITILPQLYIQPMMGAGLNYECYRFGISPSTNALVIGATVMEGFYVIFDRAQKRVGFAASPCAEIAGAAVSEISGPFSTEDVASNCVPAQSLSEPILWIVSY
human BACE-1, sequence (P56817 46-457): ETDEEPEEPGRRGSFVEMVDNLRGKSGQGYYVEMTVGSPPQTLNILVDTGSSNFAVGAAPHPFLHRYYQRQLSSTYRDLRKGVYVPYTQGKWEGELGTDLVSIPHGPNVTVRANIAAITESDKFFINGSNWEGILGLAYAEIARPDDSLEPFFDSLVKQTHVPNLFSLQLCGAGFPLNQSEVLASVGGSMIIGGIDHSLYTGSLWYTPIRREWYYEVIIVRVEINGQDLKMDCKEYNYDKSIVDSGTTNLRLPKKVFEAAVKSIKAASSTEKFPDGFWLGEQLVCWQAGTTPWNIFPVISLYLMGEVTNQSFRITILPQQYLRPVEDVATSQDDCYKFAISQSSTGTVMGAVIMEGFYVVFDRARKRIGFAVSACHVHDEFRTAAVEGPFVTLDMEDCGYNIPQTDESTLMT

Regarding `COc1cccnc1Nc1ccc(F)c([C@]2(C)CO[C@@](C)(C(F)(F)F)C(N)=N2)c1` [Example 25, (2R,5R)-5-[2-Fluoro-5-(3-methoxy-pyridin-2-ylamino)-phenyl]-2,5-dimethyl-2-trifluoromethyl-5,6-dihydro-2H-[1,4]oxazin-3-ylamine], the pIC50 on human BACE-1 is 6.68; in test [1] (Cricetulus griseus), 6.66; at human BACE-2, 7.57.
For the compound `NC1=N[C@@](c2cc(Nc3nccn4ccnc34)ccc2F)(C(F)F)COC1` [Example 13, [3-((R)—S-Amino-3-difluoromethyl-3,6-dihydro-2H-[1,4]oxazin-3-yl)-4-fluoro-phenyl]-imidazo[1,2-a]pyrazin-8-yl-amine], the values for the negative-log IC50 (pIC50) (at human BACE-1; in test [1]; on human BACE-2) were 5.85, 6.59 and 6.39, respectively.
On to `CC1(c2cccc(Nc3noc4ccccc34)c2)COCC(N)=N1` (stereo not drawn) [Example 3, [3-(5-Amino-3-methyl-3,6-dihydro-2H-[1,4]oxazin-3-yl)-phenyl]-benzo[d]isoxazol-3-yl-amine], for which the pIC50 at human BACE-1 was 5.05; in test [1] (Cricetulus griseus), 5.15; on human BACE-2, 5.49.
For `NC1=N[C@@](c2cc(Nc3ncccc3OC(F)F)ccc2F)(C(F)F)COC1` [Example 22, (R)-5-[5-(3-Difluoromethoxy-pyridin-2-ylamino)-2-fluoro-phenyl]-5-difluoromethyl-5,6-dihydro-2H-[1,4]oxazin-3-ylamine], in that order: 6.01, 6.62 and 6.47.
On to `NC1=NC(CF)(c2cc(NCc3ccc(Br)cc3Cl)ccc2F)COC1` (stereo not drawn) [Example 5, 5-[5-(4-Bromo-2-chloro-benzylamino)-2-fluoro-phenyl]-5-fluoromethyl-5,6-dihydro-2H-[1,4]oxazin-3-ylamine], for which the pIC50 was 5.44 at human BACE-1, 5.85 in test [1] (Cricetulus griseus) and 5.28 at human BACE-2.
The like results for `NC1=N[C@@](c2cc(Nc3ncccn3)ccc2F)(C(F)F)COC1` [Example 16, (R)-5-Difluoromethyl-5-[2-fluoro-5-(pyrimidin-2-ylamino)-phenyl]-5,6-dihydro-2H-[1,4]oxazin-3-ylamine] were, in that order, 5.07, 5.64 and under 5.00.
For the compound `C[C@@]1(c2cccc(Nc3n[nH]c4ccccc34)c2)COCC(N)=N1` [[3-((R)-5-amino-3-methyl-3,6-dihydro-2H-[1,4]oxazin-3-yl)-phenyl]-(1H-indazol-3-yl)-amine], the pIC50 (at human BACE-1; in test [1] (Cricetulus griseus); at human BACE-2) was under 5.00 throughout.
In the case of `COc1cccnc1Nc1ccc(F)c([C@]2(C(F)F)COCC(N)=N2)c1` [Example 15, (R)-5-Difluoromethyl-5-[2-fluoro-5-(3-methoxy-pyridin-2-ylamino)-phenyl]-5,6-dihydro-2H-[1,4]oxazin-3-ylamine], the figures for the pIC50 (on human BACE-1; in test [1] (Cricetulus griseus); on human BACE-2) were 6.52, 7.25 and 7.05, respectively.
The like results for `N#Cc1cnc2c(Nc3ccc(F)c([C@]4(C(F)F)COCC(N)=N4)c3)nccc2c1` [Example 9, 8-[3-((R)-5-Amino-3-difluoromethyl-3,6-dihydro-2H-[1,4]oxazin-3-yl)-4-fluoro-phenylamino]-[1,7]naphthyridine-3-carbonitrile] were, in that order, 7.74, 8.30 and 7.52.
Consider `NC1=NC(c2cc(NCc3cc(Br)co3)ccc2F)(C(F)F)COC1` (stereo not drawn) [Example 6, 5-{5-[(4-Bromo-furan-2-ylmethyl)-amino]-2-fluoro-phenyl}-5-difluoromethyl-5,6-dihydro-2H-[1,4]oxazin-3-ylamine], for which the pIC50 at human BACE-1 is 5.21; in test [1] (Cricetulus griseus), 6.13; on human BACE-2 it was 5.08.
The like results for `NC1=N[C@@](c2cc(Nc3ncnc4cc(Cl)cnc34)ccc2F)(C(F)F)COC1` [Example 7] were, in that order, 7.44, 7.66 and 7.49.
For `NC1=N[C@@](c2cc(Nc3ncccc3OCC(F)F)ccc2F)(C(F)F)COC1` [Example 20, (R)-5-{5-[3-(2,2-Difluoro-ethoxy)-pyridin-2-ylamino]-2-fluoro-phenyl}-5-difluoromethyl-5,6-dihydro-2H-[1,4]oxazin-3-ylamine], in that order: 5.89, 6.28 and 6.66.
The like results for `C[C@@]1(c2nc(Nc3ncnc4cc(C(F)(F)F)cnc34)ccc2F)CO[C@@](C)(C(F)(F)F)C(N)=N1` [Example 28, [6-((3R,6R)-5-Amino-3,6-dimethyl-6-trifluoromethyl-3,6-dihydro-2H-[1,4]oxazin-3-yl)-5-fluoro-pyridin-2-yl]-(7-trifluoromethyl-pyrido[3,2-d]pyrimidin-4-yl)-amine] were, in that order, 7.17, 6.82 and 6.70.
Take `COc1nccnc1Nc1ccc(F)c([C@]2(C(F)F)COCC(N)=N2)c1` [Example 18, (R)-5-Difluoromethyl-5-[2-fluoro-5-(3-methoxy-pyrazin-2-ylamino)-phenyl]-5,6-dihydro-2H-[1,4]oxazin-3-ylamine]: the results for the pIC50 (at human BACE-1; in test [1] (Cricetulus griseus); on human BACE-2) were 5.62, 6.17 and 5.89, respectively.
For `C[C@@]1(c2cc(Nc3ncnc4cc(Cl)cnc34)ccc2F)CO[C@@](C)(C(F)(F)F)C(N)=N1` [Example 23, [3-((3R,6R)-5-Amino-3,6-dimethyl-6-trifluoromethyl-3,6-dihydro-2H-[1,4]oxazin-3-yl)-4-fluoro-phenyl]-(7-chloro-pyrido[3,2-d]pyrimidin-4-yl)-amine di-hydrochloride], in that order: 7.40, 7.29 and 7.96.
For `Cn1nc(Nc2cccc([C@]3(C)COCC(N)=N3)c2)c2ccccc21` [Example 32, [3-((R)-5-Amino-3-methyl-3,6-dihydro-2H-[1,4]oxazin-3-yl)-phenyl]-(1-methyl-1H-indazol-3-yl)-amine], in that order: under 5.00, 5.08 and under 5.00.
The like results for `C[C@@]1(c2cc(Nc3ncnc4cc(C(F)(F)F)cnc34)ccc2F)CO[C@@](C)(C(F)(F)F)C(N)=N1` [Example 24, [3-((3R,6R)-5-Amino-3,6-dimethyl-6-trifluoromethyl-3,6-dihydro-2H-[1,4]oxazin-3-yl)-4-fluoro-phenyl]-(7-trifluoromethyl-pyrido[3,2-d]pyrimidin-4-yl)-amine] were, in that order, 7.08, 7.34 and 6.55.
Turning to `COc1cncnc1Nc1ccc(F)c([C@]2(C(F)F)COCC(N)=N2)c1` [Example 21, (R)-5-Difluoromethyl-5-[2-fluoro-5-(5-methoxy-pyrimidin-4-ylamino)-phenyl]-5,6-dihydro-2H-[1,4]oxazin-3-ylamine], the pIC50 was 5.82 on human BACE-1, 6.37 in test [1] (Cricetulus griseus) and 6.25 on human BACE-2.
The like results for `Cc1cn2ccnc(Nc3ccc(F)c([C@]4(C(F)F)COCC(N)=N4)c3)c2n1` [Example 12, [3-((R)-5-Amino-3-difluoromethyl-3,6-dihydro-2H-[1,4]oxazin-3-yl)-4-fluoro-phenyl]-(2-methyl-imidazo[1,2-a]pyrazin-8-yl)-amine] were, in that order, 6.46, 7.07 and 7.14.
For `CCOc1cccnc1Nc1ccc(F)c([C@]2(C(F)F)COCC(N)=N2)c1` [Example 19, (R)-5-Difluoromethyl-5-[5-(3-ethoxy-pyridin-2-ylamino)-2-fluoro-phenyl]-5,6-dihydro-2H-[1,4]oxazin-3-ylamine], in that order: 5.89, 6.51 and 6.80.
The like results for `COc1cc([N+](=O)[O-])cnc1Nc1ccc(F)c([C@]2(C(F)F)COCC(N)=N2)c1` [Example 26, (R)-5-Difluoromethyl-5-[2-fluoro-5-(3-methoxy-5-nitro-pyridin-2-ylamino)-phenyl]-5,6-dihydro-2H-[1,4]oxazin-3-ylamine] were, in that order, 5.54, 6.16 and 5.85.
Regarding `NC1=N[C@@](c2cc(Nc3nccn4c(Br)cnc34)ccc2F)(C(F)F)COC1` [Example 14, [3-((R)-5-Amino-3-difluoromethyl-3,6-dihydro-2H-[1,4]oxazin-3-yl)-4-fluoro-phenyl]-(3-bromo-imidazo[1,2-a]pyrazin-8-yl)-amine], the values for the negative logarithm of the IC50 (pIC50) (on human BACE-1; in test [1] (Cricetulus griseus); at human BACE-2) were 6.24, 6.66 and 5.85, respectively.
